In US20220135591A1, “HETEROCYCLIC COMPOUNDS AS INHIBITORS OF MONOACYLGLYCEROL LIPASE (MAGL)” (Hoffmann-La Roche Inc., priority 2019, published 2022):

Biological target: T1, MAGL (Homo sapiens, UniProt Q99685)
T1 sequence (Q99685 1-303): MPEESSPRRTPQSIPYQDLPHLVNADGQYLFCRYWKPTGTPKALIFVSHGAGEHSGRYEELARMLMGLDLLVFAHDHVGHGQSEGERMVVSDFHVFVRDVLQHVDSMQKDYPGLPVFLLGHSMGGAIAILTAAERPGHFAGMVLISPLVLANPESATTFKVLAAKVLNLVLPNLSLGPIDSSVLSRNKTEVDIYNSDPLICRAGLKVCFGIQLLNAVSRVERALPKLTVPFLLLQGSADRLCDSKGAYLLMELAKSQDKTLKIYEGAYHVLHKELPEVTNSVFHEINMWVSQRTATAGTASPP
Experiment: 2-AG assay: MAGL inhibitory activity by hydrolysis of 2-arachidonoylglycerol to arachidonic acid, mass spectrometry
Type: biochemical
Settings: 2-AG assay (values marked [b])
Method in brief: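 Human MAGL […] was preincubated 15 min at RT with compound ([…], 3-fold steps) in 50 mM Tris, 1 mM EDTA, 0.01% Tween. 2-AG (8 μM) was then added for 30 min at RT. Arachidonic acid was quantified by RapidFire SPE–triple quadrupole MS in negative ESI as its ratio to a d8-arachidonic acid standard.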

Row | SMILES | IC50 [nM]
1 | Cc1ccc2oc(N3CCN(C(=O)c4ccc(-c5cnn(CC(C)(C)C)n5)c(C#N)c4)CC3)nc2n1 [Example 236, 5-(4-(5-methyloxazolo[4,5-b]pyridin-2-yl)piperazine-1-carbonyl)-2-(2-neopentyl-2H-1,2,3-triazol-4-yl)benzonitrile] | 33
2 | COc1cc(C(=O)N2CCN(c3nc4nc(Cl)ccc4o3)CC2)ccc1-c1cn(CC(C)(C)C)nn1 [Example 237, (4-(5-chlorooxazolo[4,5-b]pyridin-2-yl)piperazin-1-yl)(3-methoxy-4-(1-neopentyl-1H-1,2,3-triazol-4-yl)phenyl)methanone] | 7
3 | COc1cc(C(=O)N2CCN(c3nc4nc(Cl)ccc4o3)CC2)ccc1-c1cnn(CC(C)(C)C)n1 [Example 238, (4-(5-chlorooxazolo[4,5-b]pyridin-2-yl)piperazin-1-yl)(3-methoxy-4-(2-neopentyl-2H-1,2,3-triazol-4-yl)phenyl)methanone] | 1
4 | COc1cc(C(=O)N2CCN(c3nc4nc(C)ccc4o3)CC2)ccc1-c1cn(CC(C)(C)C)nn1 [Example 239, (3-methoxy-4-(1-neopentyl-1H-1,2,3-triazol-4-yl)phenyl)(4-(5-methyloxazolo[4,5-b]pyridin-2-yl)piperazin-1-yl)methanone] | 13
5 | COc1cc(C(=O)N2CCN(c3nc4nc(C)ccc4o3)CC2)ccc1-c1cnn(CC(C)(C)C)n1 [Example 240, (3-methoxy-4-(2-neopentyl-2H-1,2,3-triazol-4-yl)phenyl)(4-(5-methyloxazolo[4,5-b]pyridin-2-yl)piperazin-1-yl)methanone] | 2
6 | CC(C)(C)Cn1cc(-c2ncc(C(=O)N3CCN(c4nc5nc(Cl)ccc5o4)CC3)cc2F)nn1 [Example 241, (4-(5-chlorooxazolo[4,5-b]pyridin-2-yl)piperazin-1-yl)(5-fluoro-6-(1-neopentyl-1H-1,2,3-triazol-4-yl)pyridin-3-yl)methanone] | 27
7 | CC(C)(C)Cn1nncc1-c1ncc(C(=O)N2CCN(c3nc4nc(Cl)ccc4o3)CC2)cc1F [Example 242, (4-(5-chlorooxazolo[4,5-b]pyridin-2-yl)piperazin-1-yl)(5-fluoro-6-(1-neopentyl-1H-1,2,3-triazol-5-yl)pyridin-3-yl)methanone] | 8410
8 | CC(C)(C)Cn1ncc(-c2ncc(C(=O)N3CCN(c4nc5nc(Cl)ccc5o4)CC3)cc2F)n1 [Example 243, (4-(5-chlorooxazolo[4,5-b]pyridin-2-yl)piperazin-1-yl)(5-fluoro-6-(2-neopentyl-2H-1,2,3-triazol-4-yl)pyridin-3-yl)methanone] | 25
9 | Cc1ccc2oc(N3CCN(C(=O)c4cnc(-c5cn(CC(C)(C)C)nn5)c(F)c4)CC3)nc2n1 [Example 244, (5-fluoro-6-(1-neopentyl-1H-1,2,3-triazol-4-yl)pyridin-3-yl)(4-(5-methyloxazolo[4,5-b]pyridin-2-yl)piperazin-1-yl)methanone] | 50
10 | Cc1ccc2oc(N3CCN(C(=O)c4cnc(-c5cnn(CC(C)(C)C)n5)c(F)c4)CC3)nc2n1 [Example 245, (5-fluoro-6-(2-neopentyl-2H-1,2,3-triazol-4-yl)pyridin-3-yl)(4-(5-methyloxazolo[4,5-b]pyridin-2-yl)piperazin-1-yl)methanone] | 57
11 | Cc1ccc2oc(N3CCN(C(=O)c4cnc(-c5cnnn5CC(C)(C)C)c(F)c4)CC3)nc2n1 [Example 246, (5-fluoro-6-(1-neopentyl-1H-1,2,3-triazol-5-yl)pyridin-3-yl)(4-(5-methyloxazolo[4,5-b]pyridin-2-yl)piperazin-1-yl)methanone] | 1300
12 | Cc1cc(C(=O)N2CCN(c3nc4nc(Cl)ccc4o3)CC2)cnc1-c1cnn(CC(C)(C)C)c1 [Example 247, [4-(5-chloro-[1,3]oxazolo[4,5-b]pyridin-2-yl)piperazin-1-yl]-[6-[1-(2,2-dimethylpropyl)pyrazol-4-yl]-5-methylpyridin-3-yl]methanone] | 7
13 | Cc1ccc2oc(N3CCN(C(=O)c4cnc(-c5cnn(CC(C)(C)C)c5)c(C)c4)CC3)nc2n1 [Example 248, [6-[1-(2,2-dimethylpropyl)pyrazol-4-yl]-5-methylpyridin-3-yl]-[4-(5-methyl-[1,3]oxazolo[4,5-b]pyridin-2-yl)piperazin-1-yl]methanone] | 14
14 | O=C(N1CCN(c2nc3nc(Cl)ccc3o2)CC1)N1CC(C#Cc2c(Cl)cccc2Cl)C1 [Example 249, (4-(5-chlorooxazolo[4,5-b]pyridin-2-yl)piperazin-1-yl)(3-((2,6-dichlorophenyl)ethynyl)azetidin-1-yl)methanone] | 22
15 | O=C(N1CCN(c2nc3nc(Cl)ccc3o2)CC1)N1CC(C#Cc2ccc(F)cc2Cl)C1 [Example 250, [3-[2-(2-chloro-4-fluorophenyl)ethynyl]azetidin-1-yl]-[4-(5-chloro-[1,3]oxazolo[4,5-b]pyridin-2-yl)piperazin-1-yl]methanone] | 25
16 | Cc1ccc2oc(N3CCN(C(=O)N4CC(COc5ccc(F)cc5Cl)C4)CC3)nc2n1 [Example 252, [3-[(2-chloro-4-fluorophenoxy)methyl]azetidin-1-yl]-[4-(5-methyl-[1,3]oxazolo[4,5-b]pyridin-2-yl)piperazin-1-yl]methanone] | 1240
17 | O=C(NC1CN(C(=O)N2CCN(c3nc4nc(Cl)ccc4o3)CC2)C1)c1ccc(F)cc1Cl [Example 253, 2-chloro-N-[1-[4-(5-chloro-[1,3]oxazolo[4,5-b]pyridin-2-yl)piperazine-1-carbonyl]azetidin-3-yl]-4-fluorobenzamide] | ≥ 12500
18 | Cc1ccc2oc(N3CCN(C(=O)N4CC(NC(=O)c5ccc(F)cc5Cl)C4)CC3)nc2n1 [Example 254, 2-chloro-4-fluoro-N-[1-[4-(5-methyl-[1,3]oxazolo[4,5-b]pyridin-2-yl)piperazine-1-carbonyl]azetidin-3-yl]benzamide] | ≥ 12500
19 | O=C(Nc1ccc(F)cc1Cl)C1CN(C(=O)N2CCN(c3nc4nc(Cl)ccc4o3)CC2)C1 [Example 255, N-(2-chloro-4-fluorophenyl)-1-[4-(5-chloro-[1,3]oxazolo[4,5-b]pyridin-2-yl)piperazine-1-carbonyl]azetidine-3-carboxamide] | ≥ 12500
20 | Cc1ccc2oc(N3CCN(C(=O)N4CC(C(=O)Nc5ccc(F)cc5Cl)C4)CC3)nc2n1 [Example 256, N-(2-chloro-4-fluorophenyl)-1-[4-(5-methyl-[1,3]oxazolo[4,5-b]pyridin-2-yl)piperazine-1-carbonyl]azetidine-3-carboxamide] | ≥ 12500
21 | Cc1cc(C(=O)N2CCN(c3nc4nc(Cl)ccc4o3)CC2)ccc1-c1cn(C(C)(C)C)nn1 [Example 257, (4-(1-(tert-butyl)-1H-1,2,3-triazol-4-yl)-3-methylphenyl)(4-(5-chlorooxazolo[4,5-b]pyridin-2-yl)piperazin-1-yl)methanone] | 58
22 | COC(C)(C)Cn1cc(-c2ccc(C(=O)N3CCN(c4nc5nc(Cl)ccc5o4)CC3)cc2)nn1 [Example 258, [4-(5-chlorooxazolo[4,5-b]pyridin-2-yl)piperazin-1-yl]-[4-[1-(2-methoxy-2-methyl-propyl)triazol-4-yl]phenyl]methanone] | 31
23 | CC(C)Cc1nnc(-c2ccc(C(=O)N3CCN(c4nc5nc(Cl)ccc5o4)CC3)cc2)o1 [Example 267, (4-(5-chlorooxazolo[4,5-b]pyridin-2-yl)piperazin-1-yl)(4-(5-isobutyl-1,3,4-oxadiazol-2-yl)phenyl)methanone] | 69
24 | CC(C)(C)Cn1cc(-c2ccc(C(=O)N3CCN(c4nc5nc(Cl)ccc5o4)CC3)cc2C(F)(F)F)nn1 [Example 268, (4-(5-chlorooxazolo[4,5-b]pyridin-2-yl)piperazin-1-yl)(4-(1-neopentyl-1H-1,2,3-triazol-4-yl)-3-(trifluoromethyl)phenyl)methanone] | 4
25 | CC(C)(C)Cn1ncc(-c2ccc(C(=O)N3CCN(c4nc5nc(Cl)ccc5o4)CC3)cc2C(F)(F)F)n1 [Example 269, (4-(5-chlorooxazolo[4,5-b]pyridin-2-yl)piperazin-1-yl)(4-(2-neopentyl-2H-1,2,3-triazol-4-yl)-3-(trifluoromethyl)phenyl)methanone] | 6
26 | CC(C)(C)Cn1nncc1-c1ccc(C(=O)N2CCN(c3nc4nc(Cl)ccc4o3)CC2)cc1C(F)(F)F [Example 270, (4-(5-chlorooxazolo[4,5-b]pyridin-2-yl)piperazin-1-yl)(4-(1-neopentyl-1H-1,2,3-triazol-5-yl)-3-(trifluoromethyl)phenyl)methanone] | 323
27 | Cc1cc(C(=O)N2CCN(c3nc4nc(Cl)ccc4o3)CC2)cnc1-c1cn(CC(C)(C)C)nn1 [Example 271, (4-(5-chlorooxazolo[4,5-b]pyridin-2-yl)piperazin-1-yl)(5-methyl-6-(1-neopentyl-1H-1,2,3-triazol-4-yl)pyridin-3-yl)methanone] | 74
28 | Cc1cc(C(=O)N2CCN(c3nc4nc(Cl)ccc4o3)CC2)cnc1-c1cnn(CC(C)(C)C)n1 [Example 272, (4-(5-chlorooxazolo[4,5-b]pyridin-2-yl)piperazin-1-yl)(5-methyl-6-(2-neopentyl-2H-1,2,3-triazol-4-yl)pyridin-3-yl)methanone] | 9
29 | C[C@@H]1CN(C(=O)c2ccc(-c3cn(CC(C)(C)C)nn3)cc2)CCN1c1nc2nc(Cl)ccc2o1 [Example 273, [(3R)-4-(5-chlorooxazolo[4,5-b]pyridin-2-yl)-3-methyl-piperazin-1-yl]-[4-[1-(2,2-dimethylpropyl)triazol-4-yl]phenyl]methanone] | 20
